Structures can show the parent of a compound that is named as a salt. Where two headings read alike, the source gives them in different places.
Tests used:
[1] = molecular target: human CDK4 and genetically truncated (1-264) cyclin D3 (Homo sapiens, UniProt P11802); test: Inhibition of CDK4/Cyclin D Retinoblastoma Kinase Activity; assay type: biochemical; details: for Ki: apparent Ki, CDK4/truncated cyclin D3, Rb fragment substrate, 25 μM ATP
Protocol: Cyclin-dependent kinase activity was measured by quantifying the enzyme-catalyzed, time-dependent incorporation of radioactive phosphate from [^32P]ATP or [^33P]ATP into a protein substrate. Unless noted otherwise, assays were performed in 96-well plates in a total volume of 50 μL, in the presence of 10 mM HEPES (N-[2-hydroxyethyl]piperazine-N′-[2-ethanesulfonic acid]) (pH 7.4), 10 mM MgCl2, 25 μM adenosine triphosphate (ATP), 1 mg/mL ovalbumin, 5 μg/mL leupeptin, 1 mM dithiothreitol, 10 mM β-glycerophosphate, 0.1 mM sodium vanadate, 1 mM sodium fluoride, 2.5 mM ethylene glycol-bis(β-aminoethyl ether)-N,N,N′N′-tetraacetic acid (EGTA), 2% (v/v) dimethylsulfoxide, and 0.03-0.4 μCi [^32/33P]ATP per reaction. Reactions were initiated with enzyme, incubated at 30° C., and terminated after 20 minutes by the addition of ethylenediaminetetraacetic acid (EDTA) to 250 mM. The phosphorylated substrate was then captured on a nitrocellulose or phosphocellulose membrane using a 96-well filtration manifold, and unincorporated radioactivity was removed by repeated washing with 0.85% phosphoric acid. Radioactivity was quantified by exposing the dried membranes to a phosphorimager.
Inhibition was measured relative to control wells that contained all reaction components including 2% (v/v) DMSO but no compound, after subtraction of background radioactivity measured in the absence of enzyme. Apparent Ki values of discrete compounds were measured by assaying enzyme activity in the presence of different inhibitor compound concentrations and subtracting the background radioactivity measured in the absence of enzyme. The kinetic parameters (kcat, Km for ATP) were measured for each enzyme under the usual assay conditions by determining the dependence of initial rates on ATP concentration. Inhibition data were fit to an equation for competitive inhibition using Kaleidagraph (Synergy Software), or were fit to an equation for competitive tight-binding inhibition using the software KineTic (BioKin, Ltd.).
Inhibition of CDK4/Cyclin D Retinoblastoma Kinase Activity:
A complex of human CDK4 and genetically truncated (1-264) cyclin D3 was purified using traditional biochemical chromatographic techniques from insect cells that had been co-infected with the corresponding baculovirus expression vectors (see e.g., Meijer and Kim, “Chemical Inhibitors of Cyclin-Dependent Kinases,” Methods in Enzymol,. vol. 283 (1997), pp. 113-128.). The enzyme complex (5 nM) was assayed with 0.3-0.5 μg of purified recombinant retinoblastoma protein fragment (Rb) as a substrate. The engineered Rb fragment (residues 386-928 of the native retinoblastoma protein; 62.3 kDa) contains the majority of the phosphorylation sites found in the native 106-kDa protein, as well as a tag of six histidine residues for ease of purification. Phosphorylated Rb substrate was captured by microfiltration on a nitrocellulose membrane and quantified using a phosphorimager as described above. For measurement of tight-binding inhibitors, the assay duration was extended to 60 minutes, during which the time-dependence of product formation was linear and initial rate conditions were met.

HCT-116 cell line = test: Inhibition of cell growth, tetrazolium salt (MTT) assay; assay type: cell-based; details: for HCT-116 % Inhibition at 0.25 μM: 0.25 μM compound; for IC50: Homo sapiens, HCT-116, 120 h, MTT, three to five days, read-out: HCT-116 IC50
Outline: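 Growth inhibition by MTT reduction at 540 nm (0.2 mg/mL, 4 h at 37° C, formazan dissolved in DMSO), normalized to cells given only 0.5% v/v DMSO. HCT-116 cultures in McCoy's 5A were dosed 4 h post-plating and kept three to five days at 37° C, 5% CO2.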

CDK2/Cyclin A = CDK2/Cyclin A (Homo sapiens, UniProt P24941); test: Inhibition of CDK2/Cyclin A Retinoblastoma Kinase Activity; assay type: biochemical; details: for Ki: apparent Ki, CDK2/proteolyzed cyclin A, Rb fragment substrate, 25 μM ATP; for CDK2 % Inhibition At 0.03 μM: Table 2
Outline: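 Radiometric filter-binding readout of phosphate transfer to an Rb substrate fragment by purified CDK2/truncated cyclin A at 10 or 19 nM. Run at pH 7.4 with 25 μM ATP, 30 °C, 60–75 min, linear rates; background without enzyme subtracted, Ki from competitive-inhibition models.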

[2] = 0.1 μM compound, HCT-116, Table 4
[3] = 0.1 μM compound, HCT-116, Table 3

Sequence of human CDK4 and genetically truncated (1-264) cyclin D3 (P11802 whole entry, the tested form may be a part): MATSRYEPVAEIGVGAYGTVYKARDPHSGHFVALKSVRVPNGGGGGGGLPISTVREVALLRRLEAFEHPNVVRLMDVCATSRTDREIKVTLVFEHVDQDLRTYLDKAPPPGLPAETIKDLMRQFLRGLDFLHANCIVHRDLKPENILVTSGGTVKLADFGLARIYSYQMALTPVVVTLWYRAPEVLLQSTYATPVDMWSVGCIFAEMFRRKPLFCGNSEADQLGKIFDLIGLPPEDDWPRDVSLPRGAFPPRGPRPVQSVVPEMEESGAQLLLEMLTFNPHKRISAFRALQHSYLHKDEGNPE
Sequence of human CDK4 and genetically truncated (1-264) cyclin D3 (P30281 1-264 partner): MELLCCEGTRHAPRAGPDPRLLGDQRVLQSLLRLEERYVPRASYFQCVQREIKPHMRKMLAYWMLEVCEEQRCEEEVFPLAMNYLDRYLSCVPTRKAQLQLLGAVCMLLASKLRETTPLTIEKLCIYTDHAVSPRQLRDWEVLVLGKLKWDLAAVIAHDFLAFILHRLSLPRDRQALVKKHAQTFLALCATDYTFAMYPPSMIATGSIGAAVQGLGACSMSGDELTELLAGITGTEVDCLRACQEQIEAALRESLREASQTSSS

Structure (SMILES)	Ki [1]	IC50 (HCT-116 cell line; first HCT-116 column (c4))	IC50 (HCT-116 cell line; second HCT-116 column (c5))	Ki (CDK2/Cyclin A)	CDK4 % Inhibition at 0.03 μM ([1]; at 0.03 μM)	CDK2 % Inhibition at 0.03 μM (CDK2/Cyclin A; at 0.03 μM)	HCT-116 % Inhibition at 0.1 μM (HCT-116 cell line; HCT-116 cells, at 0.1 μM)	HCT-116 5 Inhibition at 0.25 μM (HCT-116 cell line; HCT-116 cells)	further results
CCCCc1ccc(C(=O)N2CCC(Nc3nc(N)c(C(=O)c4c(F)cccc4F)s3)CC2)cc1 [Example Q36]									CDK4 % Inhibition at 0.03 μM ([1]; 0.03 μM compound, Table 4): 45%; HCT-116 % Inhibition at 0.1 μM (HCT-116 cell line; [2]): 0.49%; HCT-116 % Inhibition at 0.25 μM (HCT-116 cell line; HCT-116, Table 4): 31%; CDK2 % Inhibition at 0.03 μM (CDK2/Cyclin A; 0.03 μM compound, Table 4): 16%
COc1ccc(/C=C/C(=O)N2CCC(Nc3nc(N)c(C(=O)c4c(F)cccc4F)s3)CC2)c(Cl)c1OC [Example C7, 1-{4-[4-Amino-5-(2,6-difluoro-benzoyl)-thiazol-2-ylamino]-piperidin-1-yl}-3-(2-chloro-3,4-dimethoxy-phenyl)-propenone]	0.04 µM	0.6 µM	1.6 µM	0.032 µM					
Nc1nc(NC2CCN(C(=O)c3cccc([N+](=O)[O-])c3)CC2)sc1C(=O)c1c(F)cccc1F [Example Q69]									CDK4 % Inhibition at 0.03 μM ([1]; 0.03 μM compound, Table 4): 80%; HCT-116 % Inhibition at 0.1 μM (HCT-116 cell line; [2]): 1%; HCT-116 % Inhibition at 0.25 μM (HCT-116 cell line; HCT-116, Table 4): 24%; CDK2 % Inhibition at 0.03 μM (CDK2/Cyclin A; 0.03 μM compound, Table 4): 54%
Nc1nc(NC2CCN(C(=O)Nc3cccnc3)CC2)sc1C(=O)c1c(F)cccc1F [Example O86]									CDK4 % Inhibition at 0.03 μM ([1]; 0.03 μM compound, Table 2): 23%; HCT-116 % Inhibition at 0.25 μM (HCT-116 cell line; HCT-116, Table 2): 47%; CDK2 % Inhibition At 0.03 μM (CDK2/Cyclin A; 0.03 μM compound): 32%
CN1CCC[C@@H](COc2ccc(S(=O)(=O)N3CCC(Nc4nc(N)c(C(=O)c5c(F)cccc5F)s4)CC3)cn2)C1 (stereo in doubt) [Example H10, 1-(4-Amino-2-{1-[6-(1-methyl-piperidin-3R-ylmethoxy)-pyridine-3-sulfonyl]-piperidin-4-ylamino}-thiazol-5-yl)-1-(2,6-difluoro-phenyl)-methanone]	0.0007 µM	0.048 µM	> 0.5 µM	0.0011 µM					
Nc1nc(NC2CCN(S(=O)(=O)CCCc3nnn[nH]3)CC2)sc1C(=O)c1c(F)cccc1F [Example K18, 1-(4-Amino-2-{1-[3-(1H-tetrazol-5-yl)-propane-1-sulfonyl]-piperidin-4-ylamino}-thiazol-5-yl)-1-(2,6-difluoro-phenyl)-methanone.]	0.018 µM	> 5 µM	> 5 µM	0.0031 µM					
CN(C)C(=O)N1CCC(Nc2nc(N)c(C(=O)c3c(F)cccc3F)s2)CC1 [Example Q2]									CDK4 % Inhibition at 0.03 μM ([1]; 0.03 μM compound, Table 4): 13%; HCT-116 % Inhibition at 0.1 μM (HCT-116 cell line; [2]): 0.71%; HCT-116 % Inhibition at 0.25 μM (HCT-116 cell line; HCT-116, Table 4): 43%; CDK2 % Inhibition at 0.03 μM (CDK2/Cyclin A; 0.03 μM compound, Table 4): −43%
Nc1nc(NC2CCN(S(=O)(=O)c3ccc(CNC(=O)c4ccc(Cl)cc4)s3)CC2)sc1C(=O)c1c(F)cccc1F [Example P66]									CDK4 % Inhibition at 0.03 μM ([1]; 0.03 μM compound, Table 3): 57%; HCT-116 % Inhibition at 0.1 μM (HCT-116 cell line; [3]): 12%; HCT-116 % Inhibition at 0.25 μM (HCT-116 cell line; HCT-116, Table 3): 34%; CDK2 % Inhibition at 0.03 μM (CDK2/Cyclin A; 0.03 μM compound, Table 3): 55%
Nc1nc(NC2CCN(S(=O)(=O)c3ccc(Sc4ccncc4)cc3)CC2)sc1C(=O)c1c(F)cccc1F [Example P87]									CDK4 % Inhibition at 0.03 μM ([1]; 0.03 μM compound, Table 3): −5%; HCT-116 % Inhibition at 0.1 μM (HCT-116 cell line; [3]): 9%; HCT-116 % Inhibition at 0.25 μM (HCT-116 cell line; HCT-116, Table 3): 22%; CDK2 % Inhibition at 0.03 μM (CDK2/Cyclin A; 0.03 μM compound, Table 3): −25%
Cc1ccc(C(=O)N2CCC(Nc3nc(N)c(C(=O)c4c(F)cccc4F)s3)CC2)cc1C [Example D15, {4-Amino-2-[1-(3,4-dimethyl-benzoyl)-piperidin-4-ylamino]-thiazol-5-yl}-(2,6-difluoro-phenyl)-methanone]	0.027 µM	0.05 µM	0.17 µM	0.17 µM					
Nc1nc(NC2CCN(C(=O)Nc3cccc(Cl)c3)CC2)sc1C(=O)c1c(F)cccc1F [Example O14]									CDK4 % Inhibition at 0.03 μM ([1]; 0.03 μM compound, Table 2): 9%; HCT-116 % Inhibition at 0.25 μM (HCT-116 cell line; HCT-116, Table 2): 23%; CDK2 % Inhibition At 0.03 μM (CDK2/Cyclin A; 0.03 μM compound): 36%
N#Cc1cccc(NC(=O)N2CCC(Nc3nc(N)c(C(=O)c4c(F)cccc4F)s3)CC2)c1 [Example O43]									CDK4 % Inhibition at 0.03 μM ([1]; 0.03 μM compound, Table 2): 10%; HCT-116 % Inhibition at 0.25 μM (HCT-116 cell line; HCT-116, Table 2): 12%; CDK2 % Inhibition At 0.03 μM (CDK2/Cyclin A; 0.03 μM compound): 31%
Nc1nc(NC2CCN(S(=O)(=O)CCn3cccc3)CC2)sc1C(=O)c1c(F)cccc1F [Example K34, {4-Amino-2-[1-(2-pyrrol-1-yl-ethanesulfonyl)-piperidin-4-ylamino]-thiazol-5-yl}-(2,6-difluoro-phenyl)-methanone Trifluoroacetic Acid Salt.]	0.0054 µM	0.28 µM	1.2 µM	0.006 µM					
CC(C)S(=O)(=O)c1csc(C(=O)N2CCC(Nc3nc(N)c(C(=O)c4c(F)cccc4F)s3)CC2)c1Cl [Example C5, (4-Amino-2-{1-[3-chloro-4-(propane-2-sulfonyl)-thiophene-2-carbonyl]-piperidin-4-ylamino}-thiazol-5-yl)-(2,6-difluoro-phenyl)-methanone]	0.008 µM	1.9 µM	4 µM	0.081 µM					
CN1CCC[C@H](Oc2ccc(S(=O)(=O)N3CCC(Nc4nc(N)c(C(=O)c5c(F)cccc5F)s4)CC3)cn2)C1 [Example H29, (4-Amino-2-{1-[6-(1-methyl-piperidin-3S-yloxy)-pyridine-3-sulfonyl]-piperidin-4-ylamino}-thiazol-5-yl)-(2,6-difluoro-phenyl)-methanone Hydrochloride]	0.0013 µM	0.036 µM	0.3 µM	0.00052 µM					
CCOC(=O)CC(=O)N1CCC(Nc2nc(N)c(C(=O)c3c(F)cccc3F)s2)CC1 [Example Q47]									CDK4 % Inhibition at 0.03 μM ([1]; 0.03 μM compound, Table 4): 9%; HCT-116 % Inhibition at 0.1 μM (HCT-116 cell line; [2]): 0%; HCT-116 % Inhibition at 0.25 μM (HCT-116 cell line; HCT-116, Table 4): 25%; CDK2 % Inhibition at 0.03 μM (CDK2/Cyclin A; 0.03 μM compound, Table 4): −13%

Further lines, with some results ahead:

Ki [1]	IC50 (HCT-116 cell line; first HCT-116 column (c4))	IC50 (HCT-116 cell line; second HCT-116 column (c5))	Ki (CDK2/Cyclin A)	CDK4 % Inhibition at 0.03 μM ([1]; at 0.03 μM)	CDK2 % Inhibition at 0.03 μM (CDK2/Cyclin A; at 0.03 μM)	Structure (SMILES)	HCT-116 % Inhibition at 0.1 μM (HCT-116 cell line; HCT-116 cells, at 0.1 μM)	HCT-116 5 Inhibition at 0.25 μM (HCT-116 cell line; HCT-116 cells)	further results
				−8%	5%	Nc1nc(NC2CCN(C(=O)c3ccccc3F)CC2)sc1C(=O)c1c(F)cccc1F [Example R104]	0%	38	
				32%	16%	Cc1nn(C)c2ccc(C(=O)N3CCC(Nc4nc(N)c(C(=O)c5c(F)cccc5F)s4)CC3)c(Cl)c12 [Example R48]	0%	50	
				25%	16%	Nc1nc(NC2CCN(C(=O)c3cccnc3Oc3ccc(Cl)cc3)CC2)sc1C(=O)c1c(F)cccc1F [Example R44]	0%	41	
				17%	13%	Nc1nc(NC2CCN(C(=O)CCC3CCCC3)CC2)sc1C(=O)c1c(F)cccc1F [Example R97]	0%	39	
				4%	18%	Nc1nc(NC2CCN(C(=O)c3cc(Cl)ccc3O)CC2)sc1C(=O)c1c(F)cccc1F [Example R120]	0%	47	
				−3%	6%	CC(C)(C)COC(=O)N1CCC(Nc2nc(N)c(C(=O)c3c(F)cccc3F)s2)CC1 [Example R88]	0%	42	
				29%	−10%	Nc1nc(NC2CCN(C(=O)N3CCCC3)CC2)sc1C(=O)c1c(F)cccc1F [Example R81]	13%	43	

Reference: patent US20050101595A1, “N-containing cycloalkyl-substituted amino-thiazole derivatives and pharmaceutical compositions for inhibiting cell proliferation and methods for their use” (PFIZER INC., priority 2003, published 2005)
